Results as given in patent US6057357A, “Peripherally selective kappa opioid agonists” (Warner-Lambert Company, priority 1999, dated 2000).

How the values were obtained:
Swiss male mice [1] = test: Formalin Test in Mice: Late Phase; assay type: in vivo; conditions: Mus musculus, sc, subcutaneous, t=-10 min before formalin 5%
Method: Formalin Test in Mice: Late Phase
Swiss male mice (IFFA-CREDO) at 22±3 grams on test day.
Room temperature: 24.5<T<24.8° C.
t=-10 minutes. Subcutaneous administration of drug at 1 mL/100 g body weight. Either as a solution in distilled water or suspension in an aqueous solution of hydroxypropylmethylcellulose 0.2% (v/v).
t=0 minutes. Formalin 5% in sterile saline (v/v) administered by intraplanatar injection (20 μL) into the left paw.
t=+15 minutes. Mouse placed in cylinder.
t=+25 minutes. Nociceptive reaction: number of times left paw is licked during the observation period.
(§1) Results: Mean±sem per group
(§2) Dunnett's test after analysis of variance (Anova one way).
Reference: S. Hunskaar, Journal of Neuroscience Methods, 1985;14:69-76.

[2] = Rotarod Test in Mice (ataxic reaction); assay type: in vivo, mouse; conditions: mouse, rotarod, sc; subcutaneous, t=-30 min
Method: (§3) Swiss male mice (IFFA-CREDO) at 22±3 grams on the test day.
(§4) Room temperature: 21.2±0.2° C.
(§5) Rotarod (Ugobasile) at 18 rotations per minute.
(§6) t=-180 minutes and t=-120 minutes: mice trained to stay on the bar at least 120 seconds before falling off.
(§7) t=-30 minutes: Subcutaneous administration of drug at 1 mL/100 g body weight as either solution in distilled water or suspension in an aqueous solution of hydroxypropylmethylcellulose 0.2% (v/v).
(§8) t=0 minutes: Ataxic reaction: time taken for mouse to fall off the rotarod (maximum time 120 seconds).
as §1, §2

Swiss male mice [3] = test: Rotarod Test in Mice (ataxic reaction); assay type: in vivo, mouse; conditions: subcutaneous, t=-30 min; ED50 of 10 mg/kg
Method: as §3, §4, §5, §6, §7, §8, §1, §2

SMILES	ED50 (Swiss male mice [1])	ED50 at 0.5 h [2]	Mouse Rotarod percent effect (in parentheses beside ED50) (Swiss male mice [3])
CN(C(=O)Cc1cc2ccccc2o1)[C@H](CN1CCCC1)c1cccc(OCC(=O)O)c1 [Compound 15, (S)-(3-{1-[(Benzofuran-2-yl-acetyl)-methyl-amino]-2-pyrrolidin-1-yl-ethyl}-phenoxy)-acetic acid]	2.95 mg/kg	> 10 mg/kg	0%
CN(C(=O)Cc1coc2ccccc12)[C@H](CN1CCCC1)c1cccc(OCC(=O)O)c1 [Compound 19, (S)-(3-{1-[(Benzofuran-3-yl-acetyl)-methyl-amino]-2-pyrrolidin-1-yl-ethyl}-phenoxy)-acetic acid]	1.17 mg/kg	> 10 mg/kg	0%
CN(C(=O)Cc1ccc(S(C)(=O)=O)cc1)[C@H](CN1CCCC1)c1cccc(OCC(=O)O)c1 [Compound 23]	6.1 mg/kg	–	–
CN(C(=O)Cc1coc2ccccc12)[C@H](CN1CC[C@H](O)C1)c1cccc(OCC(=O)O)c1 [Compound 28, [S-(R*,R*)]-{3-[1-[(Benzofuran-3-yl-acetyl)-methyl-amino]-2-(3-hydroxy-pyrrolidin-1-yl)-ethyl]-phenoxy}-acetic acid]	0.36 mg/kg	~10 mg/kg	53%
CN(C(=O)Cc1cc2ccccc2o1)[C@H](CN1CC[C@H](O)C1)c1cccc(OCC(=O)O)c1 [Compound 33, [S-(R*,R*)]-{3-[1-[(Benzofuran-2-yl-acetyl)-methyl-amino]-2-(3-hydroxy-pyrrolidin-1-yl)-ethyl]-phenoxy}-acetic acid]	0.19 mg/kg	~10 mg/kg	53%
CN(C(=O)Cc1cccc2occc12)[C@H](CN1CC[C@H](O)C1)c1cccc(OCC(=O)O)c1 [Compound 38]	0.95 mg/kg	> 10 mg/kg	0%
CN(C(=O)Cc1ccc(S(C)(=O)=O)cc1)[C@H](CN1CC[C@H](O)C1)c1cccc(OCC(=O)O)c1 [Compound 43]	0.51 mg/kg	> 10 mg/kg	0%
